# According to paper PMC9371265 (PLoS Pathogens, 2022):
# Target: T1, PrpN (Bacillus anthracis, UniProt A0A6L7HCQ6)
# T1 construct: gene GBAA_0570
# T1 sequence (A0A6L7HCQ6 1-234): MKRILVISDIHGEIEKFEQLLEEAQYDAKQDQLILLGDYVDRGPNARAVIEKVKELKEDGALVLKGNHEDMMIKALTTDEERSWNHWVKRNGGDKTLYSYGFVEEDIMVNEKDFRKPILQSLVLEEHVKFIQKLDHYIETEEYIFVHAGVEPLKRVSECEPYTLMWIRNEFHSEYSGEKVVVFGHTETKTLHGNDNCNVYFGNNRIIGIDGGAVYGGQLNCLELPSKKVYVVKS
smiles,measurement,value
O=[N+]([O-])c1ccc(OP(=O)(O)O)cc1 [p-nitrophenyl phosphate],"pNPP hydrolysis, absorbance at 405 nm",determined spectrophotometrically using para-nitrophenyl phosphate-pNPP (Sigma-Aldrich) as substrate
